“Also recorded” adds a separate entry of the source. Where two headings read alike, the source gives them in different places.
Key:
SSTR3 mutants [1] = biological target: T1, SSTR3 mutants (Homo sapiens, UniProt P32745, M193I); assay: SSTRs Gi-mediated cAMP inhibition, GloSensor, HEK293 (SSTR3 mutants); type: cell-based; design: Bottom / Top / Span / Top (best-fit): unit not given here
T1 construct: The human full-length SSTRs and mutants were cloned into the pcDNA3.1+ vector; expressed in transfected cells; host or cells: HEK293 (ATCC, CRL-1573)
Experimental: (§1) The levels of the intracellular 3′, 5′-cyclic AMP (cAMP) were measured by the GloSensor cAMP assay (Promega) as described in the previous studies[28],[41] which has been widely used. The human full-length SSTRs and mutants were cloned into the pcDNA3.1+ vector with a HA signal sequence followed by a Flag tag at the N-terminus. […] Cells were then co-transfected with SSTR wild-type or mutants and GloSensor plasmids. After 24 h of transfection, the cells were dissociated with TrypLE™ Express Enzyme (1X) (Thermo Fisher Scientific) and collected by centrifugation at 500 × g for 5 min. Then the collected cells were suspended in Hank’s balanced salt solution [HBSS (Thermo Fisher Scientific)] supplemented with […] potassium salt solution (YEASEN), and then the suspension cells were seeded into 96-well plates with 90 μl/well. After incubating at room temperature for 40 min, 5 μM forskolin and ligands diluted in HBSS were added to each well and the plates were incubated at room temperature for 15 min. […] signals were measured using the Synergy H1 microplate reader (BioTek) and the data presented are means of at least three independent experiments.

SSTR3 mutants [2] = biological target: SSTR3 mutants (Homo sapiens, UniProt P32745, F296D); assay: as above; type: cell-based; design: Bottom / Top / Span / Top (best-fit): unit not given here
Experimental: as §1

SSTR3 mutants [3] = biological target: SSTR3 mutants (Homo sapiens, UniProt P32745, N104V); assay: as above; type: cell-based; design: Bottom / Top / Span / Top (best-fit): unit not given here; details: for Top: best-fit
Experimental: as §1

SSTR3 mutants [4] = assay: as above; type: cell-based, human; design: Bottom / Top / Span / Top (best-fit): unit not given here; details: H192(45.51)T and N101(2.64)V in SSTR3
Experimental: as §1

SSTR2 mutants [5] = biological target: T2, SSTR2 mutants (Homo sapiens, UniProt P30874, N276A); assay: Bystander BRET endosomal trafficking (β-arrestin 1-Nluc, FYVE-mVenus), HEK293 (SSTR2 mutants); details: best-fit value;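 also: Read-out is the BRET ratio between Nluc-fused β-arrestin 1 and the early endosome marker FYVE-mVenus, measured after ligand addition with coelenterazine h as substrate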;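 as to Bottom: percent of maximal wild-type response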
SSTR2 mutants [6] = biological target: SSTR2 mutants (Homo sapiens, UniProt P30874, F294A); assay: as above; details: for Bottom: best-fit value
SSTR2 mutants [7] = biological target: T2, SSTR2 mutants
SSTR1–5 = assay: Gi signaling of SSTR1–5, cAMP inhibition, HEK293; type: cell-based, human; details: SSTR2 versus other SSTRs
Experimental: as §1

SSTR2 Y302A mutant = test system: SSTR2 Y302A mutant; design: method as in earlier work; details: Y302(7.43)A; ref 20 of peer review file (Zhao, W. et al., 2022); cited from earlier work

T2 sequence (P30874 whole entry N276A, the tested form may be a part): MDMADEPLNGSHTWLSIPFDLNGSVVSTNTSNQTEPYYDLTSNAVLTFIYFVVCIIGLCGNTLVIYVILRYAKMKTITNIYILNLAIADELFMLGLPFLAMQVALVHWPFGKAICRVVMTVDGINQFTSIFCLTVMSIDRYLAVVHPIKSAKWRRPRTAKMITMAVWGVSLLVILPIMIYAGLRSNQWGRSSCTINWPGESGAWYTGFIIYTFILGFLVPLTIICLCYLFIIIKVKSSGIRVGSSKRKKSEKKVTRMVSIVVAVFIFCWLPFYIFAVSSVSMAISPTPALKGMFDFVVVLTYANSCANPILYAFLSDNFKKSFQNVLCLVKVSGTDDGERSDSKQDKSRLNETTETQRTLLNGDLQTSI
SSTR3 mutants (Homo sapiens, UniProt P32745, N104V), sequence (P32745 whole entry N104V): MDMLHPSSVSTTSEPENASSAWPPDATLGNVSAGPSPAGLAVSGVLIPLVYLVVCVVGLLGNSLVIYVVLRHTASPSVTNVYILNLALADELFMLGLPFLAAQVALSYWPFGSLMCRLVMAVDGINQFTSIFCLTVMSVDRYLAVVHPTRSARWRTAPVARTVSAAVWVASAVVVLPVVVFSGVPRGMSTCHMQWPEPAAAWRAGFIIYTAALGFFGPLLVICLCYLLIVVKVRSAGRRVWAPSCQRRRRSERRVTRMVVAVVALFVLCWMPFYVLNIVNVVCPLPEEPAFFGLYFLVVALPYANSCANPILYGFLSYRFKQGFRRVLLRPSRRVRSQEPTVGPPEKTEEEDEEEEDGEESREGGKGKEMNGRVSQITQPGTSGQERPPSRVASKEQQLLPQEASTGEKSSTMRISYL
SSTR3 mutants (Homo sapiens, UniProt P32745, F296D), sequence (P32745 whole entry F296D): as the sequence (P32745 whole entry N104V) above, with V104N, F296D counted along it
SSTR2 mutants (Homo sapiens, UniProt P30874, F294A), sequence (P30874 whole entry F294A): as the sequence (P30874 whole entry N276A, the tested form may be a part) above, with A276N, F294A counted along it
T1 sequence (P32745 whole entry M193I): as the sequence (P32745 whole entry N104V) above, with V104N, M193I counted along it

For `N#Cc1cccc(-c2ccc3ncc(-c4cc(F)cc(F)c4)c(N4CCC(N)CC4)c3c2)c1O` [paltusotine], the Emax (SSTR3 mutants [1]; HEK293, Suppl. Table 4, SSTR3 M193(45.52)I, n=3) was 38.8 ± 17.4%, the “Fold of WT” value (SSTR3 mutants [1]; Suppl. Table 4, SSTR3 M193(45.52)I) was 2.89 and the EC50 (SSTR3 mutants [1]; Suppl. Table 4, SSTR3 M193(45.52)I, n=3) was 184 ± 6.02 nM. For the same molecule, the Bottom (SSTR3 mutants [1]; best-fit, SSTR3 M193I-1) was -5.898, the EC50 (SSTR3 mutants [1]; best-fit, SSTR3 M193I-1) was 590 nM and the LogEC50 (SSTR3 mutants [1]; best-fit, SSTR3 M193I-1) was -6.229. The Span (SSTR3 mutants [1]; best-fit, SSTR3 M193I-1) was 76.32, the Top (SSTR3 mutants [1]; best-fit, SSTR3 M193I-1) was 70.42 and the Bottom (SSTR3 mutants [1]; best-fit, SSTR3 M193I-2) was 0.4332. For the same molecule, the LogEC50 (SSTR3 mutants [1]; best-fit, SSTR3 M193I-2) was ~ -3.924, the Span (SSTR3 mutants [1]; best-fit, SSTR3 M193I-2) was ~ 6676 and the Top (SSTR3 mutants [1]; best-fit, SSTR3 M193I-2) was ~ 6677. For the same molecule, the Bottom (SSTR3 mutants [1]; best-fit, SSTR3 M193I-3) was 0.4332, the LogEC50 (SSTR3 mutants [1]; best-fit, SSTR3 M193I-3) was ~ -3.924 and the Span (SSTR3 mutants [1]; best-fit, SSTR3 M193I-3) was ~ 6676. The Top (SSTR3 mutants [1]; best-fit, SSTR3 M193I-3) was ~ 6677, the EC50 (SSTR3 mutants [2]) was 309 ± 6.3 nM and the Emax (SSTR3 mutants [2]; HEK293) was 65.5 ± 6.4%. For the same molecule, the “Fold of WT” value (SSTR3 mutants [2]; Suppl. Table 4, SSTR3 F296(7.35)D) was 4.84, the Bottom (SSTR3 mutants [2]; best-fit, SSTR3 F296D-1) was 5.089 and the LogEC50 (SSTR3 mutants [2]; best-fit, SSTR3 F296D-1) was -6.01. The Span (SSTR3 mutants [2]; best-fit, SSTR3 F296D-1) was 99.77, the Top (SSTR3 mutants [2]; best-fit, SSTR3 F296D-1) was 104.9 and the EC50 (SSTR3 mutants [2]; best-fit, SSTR3 F296D-1, read-out: EC50) was 978 nM. It also gave a Bottom (SSTR3 mutants [2]; best-fit, SSTR3 F296D-2) of 18.98, a LogEC50 (SSTR3 mutants [2]; best-fit, SSTR3 F296D-2) of -6.627 and a Span (SSTR3 mutants [2]; best-fit, SSTR3 F296D-2) of 120. The Top (SSTR3 mutants [2]; best-fit, SSTR3 F296D-2) was 139, the EC50 (SSTR3 mutants [2]; best-fit, SSTR3 F296D-2, read-out: EC50) was 236 nM and the Bottom (SSTR3 mutants [2]; best-fit, SSTR3 F296D-3) was 12.18. For the same molecule, the LogEC50 (SSTR3 mutants [2]; best-fit, SSTR3 F296D-3) was -6.94, the Span (SSTR3 mutants [2]; best-fit, SSTR3 F296D-3) was 133.1 and the Top (SSTR3 mutants [2]; best-fit, SSTR3 F296D-3) was 145.3. It also gave an EC50 (SSTR3 mutants [2]; best-fit, SSTR3 F296D-3, read-out: EC50) of 115 nM, an EC50 (SSTR3 mutants [3]) of 97.8 nM and a Top (SSTR3 mutants [3]; SSTR3 N101V-1) of 184. For the same molecule, the Top (SSTR3 mutants [3]; SSTR3 N101V-2) was 142.6, the Top (SSTR3 mutants [3]; SSTR3 N101V-3) was 142.6 and the “Receptor activation of mutants” value (SSTR3 mutants [4]) was “increased paltusotine-induced SSTR3 activation”. The Bottom (SSTR2 mutants [5]; N276A-1 (run 1)) was 0.05559, the Bottom (SSTR2 mutants [5]; N276A-2 (run 2)) was -0.1543 and the Bottom (SSTR2 mutants [5]; N276A-3 (run 3)) was -2.441. It also gave an EC50 (SSTR2 mutants [6]) of 2094 ± 1.18 nM, an Emax (SSTR2 mutants [6]; HEK293) of 95.1 ± 4.53% and a Bottom (SSTR2 mutants [6]; F294A-1 (run 1)) of 0.7189. The Bottom (SSTR2 mutants [6]; F294A-2 (run 2)) was -2.342, the Bottom (SSTR2 mutants [6]; F294A-3 (run 3)) was -0.7874 and the Emax (SSTR2 mutants [7]) was 81 ± 1.71%. The Subtype selectivity (SSTR1–5) was “highly selective agonist of SSTR2 relative to other SSTR subtypes; also recorded: more potent selectivity for SSTR2; also recorded: higher selectivity and efficacy towards SSTR2 relative to other group 2 SSTRs”.

In the case of `C[C@@H](O)[C@@H]1NC(=O)[C@H](CCCCN)NC(=O)[C@@H](Cc2c[nH]c3ccccc23)NC(=O)[C@H](Cc2ccccc2)NC(=O)[C@@H](NC(=O)[C@H](N)Cc2ccccc2)CSSC[C@@H](C(=O)N[C@H](CO)[C@@H](C)O)NC1=O` [octreotide], the Binding to mutant (SSTR2 Y302A mutant) is given as “nearly abolished the binding”.

From publication PMC9944328 (Nature Communications, 2023)
